Reference: US5128398A, “Phenolic compound and its use as stabilizer for butadiene polymer” (Sumitomo Chemical Company, Limited, priority 1987, dated 1992)

Key:
[1] = U.S. Pat. No. 4,525,514; cited from earlier work
[2] = Solubility in hydrocarbon solvents at 20° C.; assay type: physicochemical
From the text: Solubility in hydrocarbon solvents was examined for the compounds II-1 and II-2 of the present invention and for the compounds AO-1 and AO-2 which are structurally similar to the compounds of the present invention. The hydrocarbon solvents used were n-hexane and cyclohexane. (g/100 g solvent)

SMILES	effect as a stabilizer for butadiene polymers (in words) [1]	Solubility in Cyclohexane [2]	Solubility in n-Hexane [2]
C=CC(=O)Oc1c(Cc2cc(C)cc(C(C)(C)C)c2O)cc(C)cc1C(C)(C)C [AO-1, 2-t-Butyl-6-(3-t-butyl-2-hydroxy-5-methylbenzyl)-4-methylphenyl acrylate]	effective as a stabilizer for butadiene polymers	4.0 g/100 g solvent	1.5 g/100 g solvent
C=CC(=O)Oc1c(C(C)c2cc(C(C)(C)C)cc(C(C)(C)C)c2O)cc(C(C)(C)C)cc1C(C)(C)C (stereo not drawn) [AO-2, 2,4-Di-t-butyl-6-[1-(3,5-di-t-butyl-2-hydroxyphenyl)ethyl]phenyl acrylate]	–	2.4 g/100 g solvent	1.1 g/100 g solvent
C=CC(=O)Oc1c(C(C)c2cc(C(C)(C)CC)cc(C(C)(C)CC)c2O)cc(C(C)(C)CC)cc1C(C)(C)CC (stereo not drawn) [II-1, 2,4-di-t-amyl-6-[1-(3,5-di-t-amyl-2-hydroxyphenyl)ethyl]phenyl acrylate]	–	89 g/100 g solvent	55 g/100 g solvent
C=C(C)C(=O)Oc1c(C(C)c2cc(C(C)(C)CC)cc(C(C)(C)CC)c2O)cc(C(C)(C)CC)cc1C(C)(C)CC (stereo not drawn) [II-2, 2,4-di-t-amyl-6-[1--(3,5-di-t-amyl-2-hydroxyphenyl)ethyl]phenyl methacrylate]	–	108 g/100 g solvent	65 g/100 g solvent
